The source made the active and inactive calls. The calls are words filed in the database; no cut-off is given here.
Tests used:
Cryptococcus neoformans = test: Antimicrobial activity against Cryptococcus neoformans at 1 mg/mL by agar-well diffusion assay; assay type: functional
Pseudomonas aeruginosa = test: Antimicrobial activity against Pseudomonas aeruginosa at 1 mg/mL by agar-well diffusion assay; assay type: functional, organism-based
Aspergillus fumigatus = test: Antimicrobial activity against Aspergillus fumigatus at 1 mg/mL by agar-well diffusion assay; assay type: functional
Candida albicans [1] = test: (§1) Antifungal activity against Candida albicans NIH B311 infected in mouse assessed as reduction in number of recovered colony-forming units assessed per mg of kidney at 7 mg/kg, ip administered 7 and 24 hrs after infection measured 16 hrs after final injection by tenfold serial dilution method relative to control; assay type: functional; set-up: scale not given: the % may be the effect or the level left; conditions: route intraperitoneal
Candida albicans [2] = test: as §1, with “at 20” for “at 7”; assay type: functional, organism-based; set-up: dose 20 mg/kg
Candida albicans [3] = test: as §1, with “mouse tissue-burden model” for “mouse”, “at 3.5” for “at 7”; assay type: functional; set-up: scale not given: the % may be the effect or the level left; conditions: route intraperitoneal
Candida albicans [4] = test: Antimicrobial activity against Candida albicans at 1 mg/mL by agar-well diffusion assay; assay type: functional; conditions: Candida albicans; read-out: IZ
Nannizzia gypsea = test: Antimicrobial activity against Microsporum gypseum at 1 mg/mL by agar-well diffusion assay; assay type: functional
Escherichia coli = test: Antimicrobial activity against Escherichia coli at 1 mg/mL by agar-well diffusion assay; assay type: functional, organism-based
Aspergillus flavus = test: Antimicrobial activity against Aspergillus flavus at 1 mg/mL by agar-well diffusion assay; assay type: functional
Saccharomyces cerevisiae = test: Antimicrobial activity against Saccharomyces cerevisiae at 1 mg/mL by agar-well diffusion assay; assay type: functional, organism-based
Candida albicans [5] = test: as §1, with “at 3” for “at 7”; assay type: functional; set-up: scale not given: the % may be the effect or the level left; conditions: route intraperitoneal
[6] = test system: Mycobacterium intracellulare; test: Antimicrobial activity against Mycobacterium intracellular at 1 mg/mL by agar-well diffusion assay; assay type: functional
Bacillus subtilis = test: Antimicrobial activity against Bacillus subtilis at 1 mg/mL by agar-well diffusion assay; assay type: functional, organism-based
Staphylococcus aureus = test: Antimicrobial activity against Staphylococcus aureus at 1 mg/mL by agar-well diffusion assay; assay type: functional, organism-based
[7] = test system: Trichophyton mentagrophytes; test: Antimicrobial activity against Trichophyton mentagrophytes at 1 mg/mL by agar-well diffusion assay; assay type: functional

Compound: COC(=O)C1=CC[C@@]23CC[C@@H]([C@@](C)(/C=C/C=C(\C)C(=O)O[C@@H]4O[C@H](CO)[C@@H](O)[C@H](O)[C@H]4O)OC2=O)[C@@]3(OC(C)=O)CC1
- Activity (Cryptococcus neoformans): inactive
- Activity (Pseudomonas aeruginosa): inactive
- Activity (Aspergillus fumigatus): inactive
- Activity (Candida albicans [1]): 46.59%
- Activity (Candida albicans [2]): inactive
- Activity (Candida albicans [3]): 10%
- zone of inhibition at 1000 µg/mL (Candida albicans [4]): < 1 mm
- Activity (Nannizzia gypsea): inactive
- Activity (Escherichia coli): inactive
- Activity (Aspergillus flavus): inactive
- Activity (Saccharomyces cerevisiae): inactive
- Activity (Candida albicans [5]): 9.91%
- Activity [6]: inactive
- Activity (Bacillus subtilis): inactive
- Activity (Staphylococcus aureus): inactive
- Activity [7]: inactive

— ChEMBL document CHEMBL1159211, “Antifungal evaluation of pseudolaric acid B, a major constituent of Pseudolarix kaempferi” (J Nat Prod, 1995)
